Where two headings read alike, the source gives them in different places. One block for each molecule: values may come before it.
What was measured:
[1] = molecular target: Human Serum Albumin (HSA) site I (Homo sapiens, UniProt P02768); assay: 1,8-ANS site-specific probe displacement (fluorescence) from HSA site I; conditions: for % Displacement: percent displacement of the site-specific probe 1,8-ANS at the second highest concentration of test ligand; for Fluorescent Signal: initial 1,8-ANS fluorescence as % of fluorescence without compound
Chain of Human Serum Albumin (HSA) site I (P02768 25-609): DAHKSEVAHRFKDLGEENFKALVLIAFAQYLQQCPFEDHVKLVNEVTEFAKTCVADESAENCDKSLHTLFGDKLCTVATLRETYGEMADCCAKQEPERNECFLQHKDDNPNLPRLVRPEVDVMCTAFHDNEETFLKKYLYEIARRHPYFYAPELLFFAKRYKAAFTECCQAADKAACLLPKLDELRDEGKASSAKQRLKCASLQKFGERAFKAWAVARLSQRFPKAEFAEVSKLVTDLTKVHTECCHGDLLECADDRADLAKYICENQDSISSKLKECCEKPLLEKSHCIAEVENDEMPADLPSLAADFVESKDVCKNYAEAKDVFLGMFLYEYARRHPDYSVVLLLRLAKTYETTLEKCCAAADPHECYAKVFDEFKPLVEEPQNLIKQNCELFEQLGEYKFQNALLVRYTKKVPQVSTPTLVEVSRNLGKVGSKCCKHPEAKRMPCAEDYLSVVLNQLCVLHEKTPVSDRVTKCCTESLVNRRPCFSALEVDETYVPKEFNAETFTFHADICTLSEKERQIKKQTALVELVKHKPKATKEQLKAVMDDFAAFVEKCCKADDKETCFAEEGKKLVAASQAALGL
Excerpt: In addition to the thermal shift assay, the assay test plate may be utilized in a separate fluorescence measurement using a plate-based reader that is compatible with any relevant wavelengths. The preferred plate-based reader is Tecan Satire II. The displacement of site-specific probe such as 1,8-ANS from albumin site 1 by test ligand may cause a decrease in observed fluorescence that may be fit to Equation 11 to determine the value of IC50.
Additionally, the percent displacement may be determined by (y−yhigh), divided by the difference of low (y0) and high endpoints (yhigh), wherein y is determined at the second highest concentration.
(§1) 1× reaction mixture of about 50 μg/mL human serum albumin, about 4 μM 1,8-ANS, about 150 mM NaCl, about 25 mM PIPES, pH 7.2, and about 0.002% Tween®-20 was prepared.
(§2) To prevent evaporation, about 1 μL of silicone oil was added to the plate using multichannel pipettors.
(§3) The values of Tm, ΔH, yF,Tm, mF, yU,Tm and mU were calculated for each sample according to Equation 9. Further, the value of Tm over the compound concentration was used to calculate the binding constant (KD) using Equation 10b. A shift in the denaturation curve of albumin indicates whether the compound binds to albumin, and the value of KD indicates the binding strength of compounds to albumin. A shift of the fluorescence signal indicates the specificity of compounds to albumin, and the value of IC50 indicates the binding strength to the site I (Equation 11).
(§4) The compounds and 1× reaction mixture were dispensed and measured for the fluorescence value using the plate-based reader Tecan® Safire II. Then the plate was heated in a ThermoFluor® system and measured for fluorescence value and the thermal shift value. The fluorescence values were measured twice by both plate reader and ThermoFluor®. The fluorescence value obtained from ThermoFluor® was used for qualitative assessment whereas those from the plate reader was used for quantitative assessment. The value of IC50 was determined by the fluorescence obtained from the plate reader and was fit using Equation 11 described above. The value of KD was determined by the readings from ThermoFluor® and was fit using Equation 10b described above.

[2] = molecular target: Human Serum Albumin (HSA) (Homo sapiens, UniProt P02768); assay: ThermoFluor thermal shift assay with human serum albumin
Chain of Human Serum Albumin (HSA) (P02768 25-609): as above
Description: as §1, §2
The plates were loaded onto a ThermoFluor® device and heated from about 25° C. to about 95° C. at a ramp-rate of about 1° C. per minute. Fluorescence was measured by continuous illumination with UV light (Hamamatsu LC6) via fiber optic and filtered through a band-pass filter of about 390±10 nm; >6 OD cutoff. Fluorescence emissions were detected by measuring light intensity using a CCD camera (Sensys, Roper Scientific) filtered to detect about 500±25 nm; >6 OD cutoff. This allows for the entire plate to be simultaneously monitored and each sample to be independently monitored. One or more images were collected at an interval of every about 0.5° C. to about 1° C. The sum of the pixel intensity at a given area of the plate was recorded vs. temperature.
as §3, §4

[3] = molecular target: T1, Rat Serum Albumin (Rattus norvegicus, UniProt P02770); assay: ThermoFluor thermal shift assay with rat serum albumin; format: binding
T1 construct: The above albumins were prepared using method IV of Cohn et al. (J. Am. Chem. Soc. 69: 1753-1761, 1947) and purified with 1× crystallization; purchased Sigma A-6414
T1 sequence (P02770 25-608): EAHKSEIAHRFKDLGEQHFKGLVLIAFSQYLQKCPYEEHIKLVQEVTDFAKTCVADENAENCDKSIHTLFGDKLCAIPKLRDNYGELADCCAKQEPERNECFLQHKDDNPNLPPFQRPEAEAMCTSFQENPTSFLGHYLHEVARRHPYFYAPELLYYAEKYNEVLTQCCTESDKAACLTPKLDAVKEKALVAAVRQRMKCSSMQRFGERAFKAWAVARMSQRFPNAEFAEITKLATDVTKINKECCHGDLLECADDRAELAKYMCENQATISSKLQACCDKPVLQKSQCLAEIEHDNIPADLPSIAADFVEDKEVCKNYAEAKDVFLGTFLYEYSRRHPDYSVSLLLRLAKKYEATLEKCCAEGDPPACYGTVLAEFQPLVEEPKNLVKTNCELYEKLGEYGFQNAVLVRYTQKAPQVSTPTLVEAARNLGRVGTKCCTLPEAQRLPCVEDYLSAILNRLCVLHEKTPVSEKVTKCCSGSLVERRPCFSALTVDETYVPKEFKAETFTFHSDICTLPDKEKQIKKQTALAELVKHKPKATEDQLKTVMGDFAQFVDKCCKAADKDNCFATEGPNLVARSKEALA
Excerpt: (§5) To evaluate the bioavailability of a compound in various species, the compound's affinity and specificity to albumins from human, bovine, rat, and mouse were examined. […] The resulting 1× reaction mixture comprising human serum albumin, bovine serum albumin, rat serum albumin, or mouse serum albumin was used with a panel of compounds in the binding assay.

[4] = molecular target: T2, Bovine Serum Albumin (BSA) (Bos taurus, UniProt P02769); assay: ThermoFluor thermal shift assay with bovine serum albumin; format: binding
T2 construct: The above albumins were prepared using method IV of Cohn et al. (J. Am. Chem. Soc. 69: 1753-1761, 1947) and purified with 1× crystallization; purchased Sigma A-7638
T2 sequence (P02769 25-607): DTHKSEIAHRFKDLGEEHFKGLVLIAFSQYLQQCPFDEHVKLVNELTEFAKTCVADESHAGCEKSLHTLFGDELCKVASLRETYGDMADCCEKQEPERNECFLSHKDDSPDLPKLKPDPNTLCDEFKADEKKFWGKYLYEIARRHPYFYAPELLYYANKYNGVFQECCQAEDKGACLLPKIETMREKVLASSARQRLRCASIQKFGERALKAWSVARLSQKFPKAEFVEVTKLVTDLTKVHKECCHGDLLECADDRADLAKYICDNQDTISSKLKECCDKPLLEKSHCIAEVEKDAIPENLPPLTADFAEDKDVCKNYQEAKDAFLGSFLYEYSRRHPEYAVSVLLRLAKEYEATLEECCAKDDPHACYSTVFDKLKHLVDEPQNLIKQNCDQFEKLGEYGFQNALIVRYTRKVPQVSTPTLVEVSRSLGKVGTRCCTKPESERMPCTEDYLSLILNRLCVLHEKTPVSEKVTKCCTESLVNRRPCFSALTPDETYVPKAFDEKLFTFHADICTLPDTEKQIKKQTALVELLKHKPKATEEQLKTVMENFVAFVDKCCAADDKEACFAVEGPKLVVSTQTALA
Excerpt: as §5

[5] = molecular target: T3, Mouse Serum Albumin (Mus musculus, UniProt P07724); assay: ThermoFluor thermal shift assay with mouse serum albumin; format: binding
T3 construct: The above albumins were prepared using method IV of Cohn et al. (J. Am. Chem. Soc. 69: 1753-1761, 1947) and purified with 1× crystallization; purchased Sigma A-3559
T3 sequence (P07724 25-608): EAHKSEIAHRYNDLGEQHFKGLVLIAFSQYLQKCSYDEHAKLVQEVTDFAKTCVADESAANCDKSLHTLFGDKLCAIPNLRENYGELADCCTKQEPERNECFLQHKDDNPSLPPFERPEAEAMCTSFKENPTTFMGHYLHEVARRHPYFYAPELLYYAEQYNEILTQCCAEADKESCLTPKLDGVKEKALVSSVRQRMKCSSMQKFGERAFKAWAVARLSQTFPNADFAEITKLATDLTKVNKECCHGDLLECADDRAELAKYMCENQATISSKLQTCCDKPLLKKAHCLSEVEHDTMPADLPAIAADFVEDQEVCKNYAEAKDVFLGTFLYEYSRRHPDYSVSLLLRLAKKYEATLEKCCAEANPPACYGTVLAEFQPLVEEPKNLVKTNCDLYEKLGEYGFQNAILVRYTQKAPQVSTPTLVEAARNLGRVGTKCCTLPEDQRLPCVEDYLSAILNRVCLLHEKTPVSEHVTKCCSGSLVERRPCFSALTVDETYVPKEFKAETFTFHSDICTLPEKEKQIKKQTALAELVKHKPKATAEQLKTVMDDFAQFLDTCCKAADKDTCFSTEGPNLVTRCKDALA
Excerpt: as §5

[6] = molecular target: HSA (Homo sapiens, UniProt P02768); conditions: binding site on HSA from previous reports; cited from earlier work
Chain of HSA (P02768 25-609): as the sequence (P02768 25-609) above

[7] = Human Albumin (KD), Example 4, Table 3
[8] = classified from KD versus IC50 and % displacement of 1,8-ANS
[9] = HSA - KD, Example 3, Table 2, ThermoFluor, Equation 10b

Compound: C=CC1=C(C)/C(=C/c2[nH]c(Cc3[nH]c(/C=C4\NC(=O)C(C)=C4C=C)c(C)c3CCC(=O)O)c(CCC(=O)O)c2C)NC1=O [Bilirubin, bilirubin]
% Displacement [1]: (11) %
Kd [2, 7]: 55.7 µM
Kd ([3]; Example 4, Table 3): > 120 µM
Kd ([4]; Example 4, Table 3): 85.4 µM
Kd ([5]; Example 4, Table 3): > 120 µM

Compound: CCCNC(=O)NS(=O)(=O)c1ccc(Cl)cc1 [Chlorpropamide, chlorpropamide]
% Displacement [1]: (20) %
Kd [2, 9]: 82 µM
Kd [2, 7]: 34.7 µM
Type of HSA Binding Interaction [2, 8]: Type 4
Kd ([3]; Example 4, Table 3): 29.6 µM
Kd ([4]; Example 4, Table 3): 41.7 µM
Reported Binding Site [6]: Site 1
Kd ([5]; Example 4, Table 3): 110 µM

Compound: CCOC(=O)C(C)(C)Oc1ccc(Cl)cc1 [Clofibrate, clofibrate]
% Displacement [1]: (10) %
Kd [2, 7]: > 62.5 µM
Kd ([3]; Example 4, Table 3): > 62.5 µM
Kd ([4]; Example 4, Table 3): > 62.5 µM
Kd ([5]; Example 4, Table 3): > 62.5 µM

Compound: CCC(Cc1c(I)cc(I)c(N)c1I)C(=O)O (stereo not shown) [Iodopanoate, iodopanoate]
IC50 [1]: 7.45 µM
% Displacement [1]: (83) %
Kd [2]: 0.633 µM
Type of HSA Binding Interaction [2, 8]: Type 3
Kd ([3]; Example 4, Table 3): 0.96 µM
Kd ([4]; Example 4, Table 3): 1.3 µM
Reported Binding Site [6]: Site 2
Kd ([5]; Example 4, Table 3): 0.758 µM

Compound: N[C@@H](Cc1c[nH]c2ccccc12)C(=O)O [L-Tryptophan, L-tryptophan]
Type of HSA Binding Interaction [2]: Type 5
Kd ([2]; Human Albumin (KD)): > 62.5 µM
Kd [3]: > 62.5 µM
Kd [4]: > 62.5 µM
Reported Binding Site [6]: Multiple sites
Kd [5]: > 62.5 µM

Compound: c1ccc2c(c1)[nH]c1cnccc12 [Norharmane, norharmane]
Type of HSA Binding Interaction [2]: Type 5
Kd [2, 9]: 17.6 µM
Kd [2, 7]: 17.6 µM
Kd ([3]; Example 4, Table 3): > 62.5 µM
Kd ([4]; Example 4, Table 3): > 62.5 µM
Reported Binding Site [6]: Site 2
Kd ([5]; Example 4, Table 3): > 62.5 µM

Compound: COc1cc(NS(=O)(=O)c2ccc(N)cc2)nc(OC)n1 [Sulfadimethoxine, sulfadimethoxine]
IC50 [1]: 96 µM
% Displacement [1]: (71) %
Kd [2, 7]: > 62.5 µM
Type of HSA Binding Interaction [2, 8]: Type 1
Kd ([3]; Example 4, Table 3): 9.4 µM
Kd ([4]; Example 4, Table 3): > 62.5 µM
Reported Binding Site [6]: Site 1
Kd ([5]; Example 4, Table 3): 69.5 µM

Compound: Nc1ccc(S(=O)(=O)Nc2nccs2)cc1 [Sulfathiazole, sulfathiazole]
% Displacement [1]: (40) %
Kd [2, 7]: > 62.5 µM
Type of HSA Binding Interaction [2, 8]: Type 4
Kd ([3]; Example 4, Table 3): > 62.5 µM
Kd ([4]; Example 4, Table 3): > 62.5 µM
Reported Binding Site [6]: Site 1
Kd ([5]; Example 4, Table 3): > 62.5 µM

Compound: CN1C(C(=O)Nc2ccccn2)=C(O)c2sccc2S1(=O)=O [Tenoxicam, tenoxicam]
IC50 [1]: 35.5 µM
% Displacement [1]: (84) %
Kd [2, 9]: 13 µM
Kd [2, 7]: 13 µM
Kd ([3]; Example 4, Table 3): 33.8 µM
Kd ([4]; Example 4, Table 3): > 62.5 µM
Kd ([5]; Example 4, Table 3): > 62.5 µM

Further lines, with some results ahead:

% Displacement [1]: (33) %
Kd [2, 7]: 39.5 µM
Type of HSA Binding Interaction [2, 8]: Type 4
Kd ([3]; Example 4, Table 3): > 62.5 µM
Kd ([4]; Example 4, Table 3): > 62.5 µM
Kd ([5]; Example 4, Table 3): > 62.5 µM
Compound: C[C@]12CCC(=O)C=C1C=C[C@@H]1[C@@H]2CC[C@@]2(C)[C@H]1CC[C@@]2(O)CCC(=O)O [Canrenoate, canrenoate]
Reported Binding Site [6]: Site 1

IC50 [1]: 8.39 µM
% Displacement [1]: (87) %
Kd [2, 9]: 2.1 µM
Kd [2, 7]: 2.1 µM
Type of HSA Binding Interaction [2, 8]: Type 3
Kd ([3]; Example 4, Table 3): 1.53 µM
Kd ([4]; Example 4, Table 3): 2.91 µM
Kd ([5]; Example 4, Table 3): 1.09 µM
Compound: CC(C(=O)O)c1ccc2c(c1)[nH]c1ccc(Cl)cc12 (stereo not shown) [Carprofen, carprofen]
Reported Binding Site [6]: Site 2

% Displacement [1]: (12) %
Kd [2, 7]: > 62.5 µM
Type of HSA Binding Interaction [2, 8]: Type 4
Kd ([3]; Example 4, Table 3): > 62.5 µM
Kd ([4]; Example 4, Table 3): > 62.5 µM
Kd ([5]; Example 4, Table 3): > 62.5 µM
Compound: NS(=O)(=O)c1cc2c(cc1Cl)N=CNS2(=O)=O [Chlorothiazide, chlorothiazide]
Reported Binding Site [6]: Site 2

IC50 [1]: 154 µM
Binding to site I of albumin as indicated by 1,8-ANS fluorescence ([1]; Example 2, dose-dependent change of initial fluorescence): does not bind to site I
Fluorescent Signal ([1]; compound 0.244 μM): 110%
Fluorescent Signal ([1]; compound 0.488 μM): 105%
Fluorescent Signal ([1]; compound 0.977 μM): 102%
Fluorescent Signal ([1]; compound 1.95 μM): 104%
Fluorescent Signal ([1]; compound 3.91 μM): 118%
Fluorescent Signal ([1]; compound 7.81 μM): 106%
Fluorescent Signal ([1]; compound 15.6 μM): 111%
Fluorescent Signal ([1]; compound 31.3 μM): 108%
Fluorescent Signal ([1]; compound 62.5 μM): 101%
Fluorescent Signal ([1]; compound 125 μM): 109%
Fluorescent Signal ([1]; compound 250 μM): 105%
% Displacement [1]: (47) %
Kd [2, 9]: 2.1 µM
Kd [2, 7]: 2.1 µM
Kd ([2]; KD, Example 2, Table 1, from Tm over compound concentration (Equation 10b)): 2.7 µM
Type of HSA Binding Interaction [2, 8]: Type 3
HSA Tm ([2]; compound 0.244 μM): 74.4 °C
HSA Tm ([2]; compound 0.488 μM): 74.1 °C
HSA Tm ([2]; compound 0.977 μM): 74.3 °C
HSA Tm ([2]; compound 1.95 μM): 74.4 °C
HSA Tm ([2]; compound 3.91 μM): 75.0 °C
HSA Tm ([2]; compound 7.81 μM): 75.1 °C
HSA Tm ([2]; compound 15.6 μM): 75.7 °C
HSA Tm ([2]; compound 31.3 μM): 76.1 °C
HSA Tm ([2]; compound 62.5 μM): 76.8 °C
HSA Tm ([2]; compound 125 μM): 78.2 °C
HSA Tm ([2]; compound 250 μM): 80.2 °C
Kd ([3]; Example 4, Table 3): 2.93 µM
Kd ([4]; Example 4, Table 3): 1.88 µM
Kd ([5]; Example 4, Table 3): 3.79 µM
Compound: CC(C(=O)O)c1ccc(-c2ccccc2)c(F)c1 (stereo not shown) [Flurbiprofen, flurbiprofen]
Reported Binding Site [6]: Site 2

IC50 [1]: 0.711 µM
% Displacement [1]: (129) %
Kd [2]: 0.044 µM
Type of HSA Binding Interaction [2, 8]: Type 1
Kd ([3]; Example 4, Table 3): 0.048 µM
Kd ([4]; Example 4, Table 3): 0.066 µM
Kd ([5]; Example 4, Table 3): 0.05 µM
Compound: CCC(Cc1c(I)cc(I)c(O)c1I)C(=O)O (stereo not shown) [Iophenoxate, iophenoxate]
Reported Binding Site [6]: Site 1

IC50 [1]: 25 µM
% Displacement [1]: (51) %
% Displacement ([1]; listed as quercetin): about 51%
Kd [2, 9]: 7.9 µM
Kd [2, 7]: > 62.5 µM
Type of HSA Binding Interaction [2, 8]: Type 1
Kd ([3]; Example 4, Table 3): > 62.5 µM
Kd ([5]; Example 4, Table 3): > 62.5 µM
Compound: O=c1c(O)c(-c2ccc(O)c(O)c2)oc2cc(O)cc(O)c12 [Quercetin, quercetin]
Reported Binding Site [6]: Site 1

% Displacement [1]: (31) %
Kd [2, 7]: > 62.5 µM
Kd ([3]; Example 4, Table 3): > 62.5 µM
Kd ([4]; Example 4, Table 3): > 62.5 µM
Kd ([5]; Example 4, Table 3): > 62.5 µM
Compound: CCCC(CCC)C(=O)O [Valproate, valproate]

Reference: patent publication US8476081B2, “Assay for evaluating affinity and specificity of ligand-albumin binding” (Janssen Pharmaceutica NV, priority 2009, dated 2013)
